According to ChEMBL document CHEMBL4651402, “Screening of ~5500 FDA-approved drugs and clinical candidates for anti-SARS-CoV-2 activity” (2021):

Test system: SARS-CoV-2
Experiment: microbe, parasite or virus in culture
Conditions: Severe acute respiratory syndrome coronavirus 2, Vero C1008, 48 h

SMILES	IC50 [µM]	IC50 (read-out: pIC50 (converted)) [µM]
Cc1cc(OC(=O)c2c(C)cc(O)cc2O)cc(O)c1C(=O)O [LECANORIC ACID]	> 20	> 20
COc1cc(OC)c(/C=C/S(=O)(=O)Cc2ccc(OC)c(NCC(=O)O)c2)c(OC)c1 [RIGOSERTIB]	> 20	> 20
CN(c1nc2ccccc2s1)C1CCN(C[C@@H](O)COc2ccc(F)c(F)c2)CC1	> 20	> 20
CN(C)CCCn1c2c(c3ccccc31)CCCCCC2 [IPRINDOLE]	> 20	> 20
C[C@@H]1[C@H](O)[C@@H](C)\C=C/C=C\C=C/C=C\C=C/C=C\C=C/[C@H](O[C@@H]2O[C@H](C)[C@@H](O)[C@H](N)[C@@H]2O)C[C@@H]2O[C@](O)(C[C@@H](O)C[C@@H](O)[C@H](O)CC[C@@H](O)C[C@@H](O)CC(=O)O[C@H]1C)C[C@H](O)[C@H]2C(=O)O	> 20	> 20
c1ccc2c(Cc3c[nH]c4ccccc34)c[nH]c2c1 [ARUNDINE]	> 20	> 20
C=C1C(=O)O[C@@H]2[C@H]3O[C@]3(C)CC/C=C(\C)CC[C@@H]12	> 20	> 20
NCCCCN [PUTRESCINE]	> 20	> 20
NCCCC(O)(P(=O)(O)O)P(=O)(O)O [ALENDRONIC ACID]	> 20	> 20
CCN1[C@@H]2CC[C@H]1C[C@@H](OC(c1ccccc1)c1ccccc1)C2 [ETHYBENZTROPINE]	> 20	> 20
OCc1cc2c(cn1)[nH]c1ccccc12	> 20	> 20
CCc1cccc2cc(C(O)CNC(C)(C)C)oc12 (stereo not given) [BUFURALOL]	> 20	> 20
Nc1nc(=O)n([C@H]2C[C@H](O)[C@@H](CO)O2)cc1I [IBACITABINE]	> 20	> 20
C=CCNc1nc(NCC=C)nc(N2CCN(C(c3ccc(F)cc3)c3ccc(F)cc3)CC2)n1 [ALMITRINE]	> 20	> 20
Cc1cccc(C)c1NC(=O)c1ccccc1C(=O)O [FTAXILIDE]	> 20	> 20
O=C(Nc1ccc(Cl)c(Cl)c1)C1=C(O)c2cc(Cl)ccc2S(=O)(=O)CC1 [ENOLICAM]	> 20	> 20
COc1ccc2c3c1O[C@H]1C(=O)CC[C@H]4[C@@H](C2)N(C)CC[C@]314 [HYDROCODONE]	> 20	> 20
CCOC(=O)[C@H](CCc1ccccc1)N[C@@H](C)C(=O)N1Cc2cc(OC)c(OC)cc2C[C@H]1C(=O)O [MOEXIPRIL]	> 20	> 20
O=P1(N(CCCl)CCCl)NCCCO1 (stereo not given) [CYCLOPHOSPHAMIDE ANHYDROUS]	> 20	> 20
O=C(CNC(=O)c1cccc(C(F)(F)F)c1)NC1CN([C@H]2CC[C@@](O)(c3cncs3)CC2)C1 [JNJ-41443532]	> 20	> 20

SMILES	IC50 [µM]	IC50 (read-out: pIC50 (converted)) [µM]
CC(=O)N(C)C1(c2ccccc2)CCN(CCC[C@]2(c3ccc(Cl)c(Cl)c3)CCCN(C(=O)c3ccccc3)C2)CC1 [OSANETANT]	> 20	> 20
C[C@@H](Nc1ncnc2[nH]c(-c3ccc(O)cc3)cc12)c1ccccc1 [PKI-166]	> 20	> 20
CCOC(=O)c1cncn1[C@@H](C)c1ccccc1 [S-ETOMIDATE]	> 20	> 20
COc1ccc([C@H](Cc2ccncc2)c2ccccc2)cc1OC1CCCC1 [CDP840]	> 20	> 20
CC1(C)SC2C(NC(=O)C(NC(=O)N3CCNC3=O)c3ccccc3)C(=O)N2C1C(=O)O (stereo not given)	> 20	> 20
Cc1ccc2nc(N3CCS(=O)(=O)c4ccccc4C3)nc(NCC3(N)COC3)c2c1 [ZIRESOVIR]	> 20	> 20
CCCn1c(=O)c2[nH]c(C3CC4CC3[C@H]3O[C@@H]43)nc2n(CCC)c1=O (stereo not given in full)	> 20	> 20
CC1(C)SCCN(S(=O)(=O)c2ccc(Oc3ccncc3)cc2)[C@@H]1C(=O)NO	> 20	> 20
O=C(CCCCC(=O)Nc1c(I)cc(I)c(C(=O)O)c1I)Nc1c(I)cc(I)c(C(=O)O)c1I [IODIPAMIDE]	> 20	> 20
O=C(Nc1ccccc1)c1ccccc1O [SALICYLANILIDE]	> 20	> 20
CCCCC(=O)O[C@]1(C(=O)CO)C(C)CC2C3CCC4=CC(=O)C=CC4(C)[C@@]3(F)C(O)CC21C (stereo not given in full)	> 20	> 20
CC(CN1c2ccccc2Sc2ccc(S(=O)(=O)N(C)C)cc21)N(C)C (stereo not given) [FONAZINE]	> 20	> 20
CC(=O)O[C@]1(C(C)=O)CCC2C3CCC4=CC(=O)CCC4C3C(C)CC21C (stereo not given in full)	> 20	> 20
CC(=O)OC1CCC2(C)C(=CCC3C2CCC2(C)C(C(C)CCCC(C)C)CCC32)C1 (stereo not given)	> 20	> 20
CNC(=O)c1cnn(-c2nc(N)c3ncn([C@@H]4O[C@H](CO)[C@@H](O)[C@H]4O)c3n2)c1 [REGADENOSON ANHYDROUS]	> 20	> 20
O=c1[nH]c(=O)n([C@@H]2O[C@H](CO)[C@@H](O)[C@@H]2O)cc1/C=C/Br [SORIVUDINE]	> 20	> 20
c1cnc2c(c1)CC1(CN3CCC1CC3)O2 (stereo not given)	> 20	> 20
CCOC(=O)[C@H](C)C[C@@H](C)C(=O)N1c2ccccc2C[C@H]1C(=O)O [PENTOPRIL]	> 20	> 20
CCC(=O)NS(=O)(=O)c1ccc(-c2c(-c3ccccc3)noc2C)cc1 [PARECOXIB]	> 20	> 20
COc1cc2c(cc1O)CC1c3c(cc(O)c(OC)c3-2)CCN1C (stereo not given)	> 20	> 20

SMILES	IC50 [µM]	IC50 (read-out: pIC50 (converted)) [µM]
COCCNCc1ccc(-c2cc3nccc(Oc4ccc(NC(=O)C5(C(=O)Nc6ccc(F)cc6)CC5)cc4F)c3s2)nc1 [SITRAVATINIB]	> 20	> 20
Nc1nc(N)c2nc(-c3ccccc3)c(N)nc2n1	> 20	> 20
CC(C)C(=O)c1c(C(C)C)nn2ccccc12 [IBUDILAST]	> 20	> 20
COC(=O)C1=COC(C)C2CN3CCc4c([nH]c5ccccc45)C3CC12 (stereo not given)	> 20	> 20
COc1c(C)c2c(c(O)c1C/C=C(\C)CCC(=O)O)C(=O)OC2 [MYCOPHENOLIC ACID]	> 20	> 20
NNC(=O)CN1C(=O)CN=C(c2ccccc2)c2cc(Br)ccc21	> 20	> 20
Cc1ccc(Cl)c(Nc2ccccc2C(=O)O)c1Cl [MECLOFENAMIC ACID]	> 20	> 20
OC[C@H]1O[C@@H](S[C@@H]2O[C@H](CO)[C@H](O)[C@H](n3cc(-c4cccc(F)c4)nn3)[C@H]2O)[C@H](O)[C@@H](n2cc(-c3cccc(F)c3)nn2)[C@H]1O [OLITIGALTIN]	> 20	> 20
O=C(O)[C@H](O)[C@@H](O)[C@H](O[C@@H]1O[C@H](CO)[C@H](O)[C@H](O)[C@H]1O)[C@H](O)CO	> 20	> 20
CC1(C)O[C@@H]2C[C@H]3[C@@H]4C[C@H](F)C5=CC(=O)CC[C@]5(C)[C@H]4[C@@H](O)C[C@]3(C)[C@]2(C(=O)CO)O1 [FLURANDRENOLIDE]	> 20	> 20
CC1CCc2cc(F)cc3c(=O)c(C(=O)O)cn1c23 (stereo not given) [FLUMEQUINE]	> 20	> 20
NC(=O)[C@@H](CCC(F)(F)F)N(Cc1ccc(-c2ncon2)cc1F)S(=O)(=O)c1ccc(Cl)cc1	> 20	> 20
CC(C)[C@@H](N)C(=O)O	> 20	> 20
O=C1CN=C(c2ccccc2)c2cc(Cl)ccc2N1 [NORDAZEPAM]	> 20	> 20
O=c1[nH]c(=O)c(Cc2cccc(C(F)(F)F)c2)c([C@H]2CC[C@H](c3ccccc3)CC2)[nH]1 [MIRICORILANT]	> 20	> 20
CC(C)c1noc(N2CCC(COc3ccc(-c4ccc(S(C)(=O)=O)cc4)nc3)CC2)n1 [GSK-1292263]	> 20	> 20
CC(=O)OCC(=O)[C@@]1(O)CCC2C3CCC4=CC(=O)CC[C@]4(C)C3=CC[C@@]21C (stereo not given in full)	> 20	> 20
CCN(CC)CCOc1ccccc1-n1c(C)ccc1-c1ccccc1 [LEIOPYRROLE]	> 20	> 20
CNNCc1ccc(C(=O)NC(C)C)cc1 [PROCARBAZINE]	> 20	> 20
C[N+](C)(C)NCCC(=O)O	> 20	> 20
